Measurements published in US9296725B2, “Heterocyclyl pyrimidine analogues as TYK2 inhibitors” (Cellzome Limited, priority 2012, dated 2016).
Where two headings read alike, the source gives them in different places.

Columns and labels:
TYK2 = target: T1, TYK2 (Homo sapiens, UniProt P29597); assay: Kinobeads assay, TYK2 (competition binding in mixed Molt4/Ramos cell lysate, dot blot detection)
T1 construct: endogenous in cells; host or cells: Molt4 (ATCC CRL-1582) and Ramos (ATCC CRL-1596), mixed lysate 1:2
T1 sequence (P29597 whole entry): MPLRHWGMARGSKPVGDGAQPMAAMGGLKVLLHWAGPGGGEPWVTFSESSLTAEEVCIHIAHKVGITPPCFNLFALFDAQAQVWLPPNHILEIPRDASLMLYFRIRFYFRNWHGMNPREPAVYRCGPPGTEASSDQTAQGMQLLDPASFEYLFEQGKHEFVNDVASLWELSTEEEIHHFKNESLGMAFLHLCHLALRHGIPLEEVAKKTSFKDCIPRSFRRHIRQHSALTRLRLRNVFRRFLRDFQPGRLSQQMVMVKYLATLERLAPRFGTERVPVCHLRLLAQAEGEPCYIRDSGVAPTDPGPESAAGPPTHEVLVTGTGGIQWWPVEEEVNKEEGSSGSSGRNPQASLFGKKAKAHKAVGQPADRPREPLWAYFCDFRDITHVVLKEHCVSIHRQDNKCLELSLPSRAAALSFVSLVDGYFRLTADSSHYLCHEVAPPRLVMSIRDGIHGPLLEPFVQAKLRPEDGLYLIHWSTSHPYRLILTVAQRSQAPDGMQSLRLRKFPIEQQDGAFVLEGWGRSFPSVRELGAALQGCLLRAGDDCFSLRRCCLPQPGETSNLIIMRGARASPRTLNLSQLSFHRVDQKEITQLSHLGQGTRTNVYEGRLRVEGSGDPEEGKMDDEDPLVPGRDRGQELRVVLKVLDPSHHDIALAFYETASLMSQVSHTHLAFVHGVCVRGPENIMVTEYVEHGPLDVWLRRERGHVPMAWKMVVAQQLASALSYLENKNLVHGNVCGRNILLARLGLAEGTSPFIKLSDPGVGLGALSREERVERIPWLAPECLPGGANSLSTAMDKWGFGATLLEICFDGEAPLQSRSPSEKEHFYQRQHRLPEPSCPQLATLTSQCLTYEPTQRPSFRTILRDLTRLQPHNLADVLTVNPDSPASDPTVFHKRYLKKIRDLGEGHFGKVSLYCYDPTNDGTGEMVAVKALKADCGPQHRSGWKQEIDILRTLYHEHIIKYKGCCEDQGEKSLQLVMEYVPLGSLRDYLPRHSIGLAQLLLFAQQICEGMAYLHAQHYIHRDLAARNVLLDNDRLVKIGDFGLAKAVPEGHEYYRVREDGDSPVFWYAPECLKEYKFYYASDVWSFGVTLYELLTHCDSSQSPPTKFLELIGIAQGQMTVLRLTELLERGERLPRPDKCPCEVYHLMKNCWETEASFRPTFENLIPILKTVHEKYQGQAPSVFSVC
Description: (§1) The compounds of the present invention as described in the previous examples were tested in a Kinobeads™ assay as described for ZAP-70 (WO-A 2007/137867). Briefly, test compounds (at various concentrations) and the affinity matrix with the immobilized aminopyrido-pyrimidine ligand 24 were added to cell lysate aliquots and allowed to bind to the proteins in 10 the lysate sample. After the incubation time the beads with captured proteins were separated from the lysate. Bound proteins were then eluted and the presence of TYK2 and JAK2 was detected and quantified using specific antibodies in a dot blot procedure and the Odyssey infrared detection system. Dose response curves for individual kinases were generated and IC50 values calculated. Kinobeads™ assays have been previously described (WO-A 2007/137867; WO-A 2006/134056).
(§2) The affinity matrix was washed two times with 15 mL of 1×DP buffer containing 0.2% NP40 (IGEPAL® CA-630, Sigma, #13021) and then resuspended in 1×DP buffer containing 0.2% NP40 (3% beads slurry). 5×DP buffer: 250 mM Tris-HCl pH 7.4, 25% Glycerol, 7.5 mM MgCl2, 750 mM NaCl, 5 mM Na3VO4; filter the 5×DP buffer through a 0.22 μm filter and store in aliquots at −80° C. The 5×DP buffer is diluted with H2O to 1×DP buffer containing 1 mM DTT and 25 mM NaF.
(§3) Stock solutions of test compounds were prepared in DMSO. In a 96 well plate 30 μL solution of diluted test compounds at 5 mM in DMSO were prepared. Starting with this solution a 1:3 dilution series (9 steps) was prepared. For control experiments (no test compound) a buffer containing 2% DMSO was used.
(§4) Molt4 cells (ATCC catalogue number CRL-1582) and Ramos cells (ATCC catalogue number CRL-1596) were grown in 1 L Spinner flasks (Integra Biosciences, #182101) in suspension in RPMI 1640 medium (Invitrogen, #21875-034) supplemented with 10% Fetal Bovine Serum (Invitrogen) at a density between 0.15×10^6 and 1.2×10^6 cells/mL. Cells were harvested by centrifugation, washed once with 1×PBS buffer (Invitrogen, #14190-094) and cell pellets were frozen in liquid nitrogen and subsequently stored at −80° C. Cells were homogenized in a Potter S homogenizer in lysis buffer: 50 mM Tris-HCl, 0.8% NP40, 5% glycerol, 150 mM NaCl, 1.5 mM MgCl2, 25 mM NaF, 1 mM sodium vanadate, 1 mM DTT, pH 7.5. One complete EDTA-free tablet (protease inhibitor cocktail, Roche Diagnostics, 1873580) per 25 mL buffer was added. The material was dounced 10 times using a mechanized POTTER S, transferred to 50 mL falcon tubes, incubated for 30 minutes on ice and spun down for 10 minutes at 20,000 g at 4° C. (10,000 rpm in Sorvall SLA600, precooled). The supernatant was transferred to an ultracentrifuge (UZ)-polycarbonate tube (Beckmann, 355654) and spun for 1 hour at 100.000 g at 4° C. (33.500 rpm in Ti50.2, precooled). The supernatant was transferred again to a fresh 50 mL falcon tube, the protein concentration was determined by a Bradford assay (BioRad) and samples containing 50 mg of protein per aliquot were prepared. The samples were immediately used for experiments or frozen in liquid nitrogen and stored frozen at −80° C.
(§5) Cell lysate (approximately 50 mg protein per plate) was thawed in a water bath at room temperature and then stored on ice. To the thawed cell lysate 1×DP 0.8% NP40 buffer containing protease inhibitors (1 tablet for 25 mL buffer; EDTA-free protease inhibitor cocktail; Roche Diagnostics 1873580) was added in order to reach a final protein concentration of 10 mg/mL total protein. The diluted cell lysate was stored on ice. Mixed Molt4/Ramos lysate was prepared by combining one volume of Molt4 lysate and two volumes of Ramos lysate (ratio 1:2).
(§6) To a 96 well filter plate (Multiscreen HTS, BV Filter Plates, Millipore #MSBVN1250) were added per well: 100 μL affinity matrix (3% beads slurry), 3 μL of compound solution, and 50 μL of diluted lysate. Plates were sealed and incubated for 3 hours in a cold room on a plate shaker (Heidolph tiramax 1000) at 750 rpm. […]

JAK2 = target: T2, JAK2 (Homo sapiens, UniProt O60674); assay: Kinobeads assay, JAK2 (competition binding in mixed Molt4/Ramos cell lysate, dot blot detection); conditions: read-out: JAK2 Band (Kinobeads assay potency, IC50)
T2 construct: endogenous in cells; host or cells: Molt4 (ATCC CRL-1582) and Ramos (ATCC CRL-1596), mixed lysate 1:2
T2 sequence (O60674 whole entry): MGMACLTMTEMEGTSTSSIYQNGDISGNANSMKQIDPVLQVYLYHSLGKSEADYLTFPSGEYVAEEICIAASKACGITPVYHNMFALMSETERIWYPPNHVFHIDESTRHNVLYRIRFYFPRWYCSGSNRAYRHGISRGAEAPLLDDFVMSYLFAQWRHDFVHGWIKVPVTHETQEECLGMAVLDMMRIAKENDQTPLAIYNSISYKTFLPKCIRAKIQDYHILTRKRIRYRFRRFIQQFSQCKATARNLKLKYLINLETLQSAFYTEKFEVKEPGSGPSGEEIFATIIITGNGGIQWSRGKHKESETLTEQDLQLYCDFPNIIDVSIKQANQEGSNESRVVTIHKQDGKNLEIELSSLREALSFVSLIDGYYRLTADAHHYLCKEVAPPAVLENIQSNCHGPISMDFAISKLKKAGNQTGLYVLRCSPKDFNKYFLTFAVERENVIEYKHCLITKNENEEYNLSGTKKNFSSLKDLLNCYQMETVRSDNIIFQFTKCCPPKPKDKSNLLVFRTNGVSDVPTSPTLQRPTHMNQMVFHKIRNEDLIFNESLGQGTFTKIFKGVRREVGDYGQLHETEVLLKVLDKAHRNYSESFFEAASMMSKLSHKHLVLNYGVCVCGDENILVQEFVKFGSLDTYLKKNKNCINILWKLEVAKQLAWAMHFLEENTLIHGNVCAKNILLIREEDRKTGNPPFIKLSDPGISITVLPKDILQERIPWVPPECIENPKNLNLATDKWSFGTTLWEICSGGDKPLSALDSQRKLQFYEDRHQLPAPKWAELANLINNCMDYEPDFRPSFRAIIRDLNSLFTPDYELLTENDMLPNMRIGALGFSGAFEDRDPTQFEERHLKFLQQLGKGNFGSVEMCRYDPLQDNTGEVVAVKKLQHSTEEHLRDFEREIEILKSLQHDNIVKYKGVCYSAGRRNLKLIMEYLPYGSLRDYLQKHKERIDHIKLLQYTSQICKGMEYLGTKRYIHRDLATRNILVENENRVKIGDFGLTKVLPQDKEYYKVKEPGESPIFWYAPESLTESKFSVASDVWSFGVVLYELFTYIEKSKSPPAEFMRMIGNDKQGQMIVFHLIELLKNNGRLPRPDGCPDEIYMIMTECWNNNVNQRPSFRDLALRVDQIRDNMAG
Description: as §1, §2, §3, §4, §5, §6

[1] = Kinobeads assay, Molt4/Ramos lysate, read-out: TYK2 Band (Kinobeads assay potency, IC50)

Row | SMILES | IC50 (TYK2; [1]) [nM] | IC50 (JAK2) [nM] | IC50 (TYK2; read-out: TYK2 IC50) [nM]
1 | COc1ccc(F)c(CNc2nc(Nc3cnn(CC(=O)N(C)C)c3)ncc2F)c1F [Example I-13] | ≤ 10 | 1000 to 10000 | 
2 | Fc1cc(F)cc(CNc2nc(Nc3cnn(CC(F)F)c3)ncc2Cl)c1 [Example I-470] | 100 to 1000 | 100 to 1000 | 
3 | O=C(O)Cn1cc(Nc2ncc(Cl)c(NCc3cc(F)cc(C(F)(F)F)c3)n2)cn1 [Example I-275] | 100 to 1000 | 1000 to 10000 | 
4 | CC1(C)CN(C(=O)Cn2cc(Nc3ncc(F)c(NCc4c(F)cc(F)cc4F)n3)cn2)CCO1 [Example I-39] | 10 to 100 | 1000 to 10000 | 
5 | [2H]C([2H])(O)C([2H])([2H])n1cc(Nc2ncc(Cl)c(NCc3ccccc3)n2)cn1 [Example I-231] | 100 to 1000 | 1000 to 10000 | 
6 | CS(=O)(=O)c1ccccc1CNc1nc(Nc2cnn(CC(F)(F)F)c2)ncc1Cl [Example I-475] | 1000 to 10000 | > 10000 | 
7 | CC(C)NC(=O)Cn1cc(Nc2nccc(NCc3cccc(OC(F)F)c3)n2)cn1 [Example I-67] | 10 to 100 | > 10000 | < 100
8 | Cc1cnc(Nc2cnn(CC(=O)N3CCOC(C)(C)C3)c2)nc1NCc1c(F)cc(F)cc1F [Example I-34] | ≤ 10 | 1000 to 10000 | 
9 | O=C(Cn1cc(Nc2ncc(Cl)c(NCc3cccnc3)n2)cn1)N1CCOCC1 [Example I-337] | 100 to 1000 | 1000 to 10000 | 
10 | O=C(Cn1cc(Nc2nccc(NCc3c(F)cc(F)cc3F)n2)cn1)NC1CC1 [Example I-80] | 10 to 100 | 1000 to 10000 | 
11 | CC(C)NC(=O)Cn1cc(Nc2nccc(NCc3c(Cl)ccc(Cl)c3F)n2)cn1 [Example I-78] | ≤ 10 | 100 to 1000 | 
12 | COc1ccc(F)c(CNc2nc(Nc3cnn(CC(=O)N(C)C)c3)ncc2Cl)c1F [Example I-376] | 10 to 100 | 100 to 1000 | 
13 | C[C@H]1COCCN1C(=O)Cn1cc(Nc2nccc(NCc3c(F)cc(F)cc3F)n2)cn1 [Example I-52] | 10 to 100 | 1000 to 10000 | 
14 | CS(=O)(=O)NCc1cccc(CNc2nc(Nc3cnn(CCO)c3)ncc2Cl)c1 [Example I-417] | 100 to 1000 | 100 to 1000 | 
15 | CC(C)(CF)NC(=O)Cn1cc(Nc2nccc(NCc3c(F)cc(F)cc3F)n2)cn1 [Example I-430] | 10 to 100 | 1000 to 10000 | 
16 | CNC(=O)Cn1cc(Nc2ncc(Cl)c(NCc3c(Cl)cccc3Cl)n2)cn1 [Example I-325] | 10 to 100 | 1000 to 10000 | 
17 | C[C@H](CO)NC(=O)Cn1cc(Nc2nccc(NCc3c(F)cccc3Cl)n2)cn1 [Example I-106] | ≤ 10 | 1000 to 10000 | 
18 | COc1cc(F)c(CNc2nc(Nc3cnn(CC(=O)N4CCOCC4)c3)ncc2C)c(F)c1 [Example I-29] | ≤ 10 | 1000 to 10000 | 
19 | CS(=O)(=O)c1cccc(CNc2nc(Nc3cnn(CC(=O)NC4CC4)c3)ncc2Cl)c1 [Example I-440] | 10 to 100 | 1000 to 10000 | 
20 | OCCn1cc(Nc2ncc(Cl)c(NCc3cc(C(F)(F)F)ccc3F)n2)cn1 [Example I-281] | 10 to 100 | 100 to 1000 | 
21 | COc1ccc(F)c(CNc2ccnc(Nc3cnn(CC(=O)NCC(F)F)c3)n2)c1F [Example I-127] | 10 to 100 | 1000 to 10000 | 
22 | COc1ccc(F)c(CNc2nc(Nc3cnn(CC(=O)NCC(C)C)c3)ncc2Cl)c1F [Example I-428] | 10 to 100 | 1000 to 10000 | 
23 | O=C(Cn1cc(Nc2ncc(Cl)c(NCc3cc(F)cc(F)c3)n2)cn1)N1CCOCC1 [Example I-162] | 10 to 100 | 10 to 100 | 
